Source: publication PMC4829596 (Frontiers in Microbiology, 2016)
In brackets after ≈: the same amount, converted by molar mass. Read-outs that look alike come from different tables or passages of the source.

Legend:
S. aureus = assay: Determination of MIC; type: cell-based, Staphylococcus aureus; details: Staphylococcus aureus
Procedure: (§1) Minimal inhibitory concentrations (MICs) of purified compounds and commercially available standards were assessed against S. aureus, C. albicans, P. aeruginosa, K. pneumoniae, E. coli, ESBL K. pneumoniae, ESBL E. coli and the two MRSA strains (B337919 and B335466). Stock solutions of 5 × 10^6 μg/l of p-hydroxybenzaldehyde, and phenyllactic acid were prepared using water. Stock solutions of 1 × 10^8 μg/l indole-3-carboxylic acid, PAA and indole-3-acetic acid were prepared using methanol and diluted with water (working solution of 5 × 10^6 μg/l). Stocks of 1 × 10^6 μg/l of cFP and cPM were dissolved in water. […] Methanol and water were used as control.

[1] = test system: MRSA Staphylococcus (S.) aureus B335466; assay: Determination of MIC; type: cell-based
Procedure: as §1

[2] = test system: MRSA Staphylococcus (S.) aureus B337919; assay: Determination of MIC; type: cell-based
Procedure: as §1

C. albicans = assay: Determination of MIC; type: cell-based, Candida albicans; details: Candida albicans
Procedure: as §1

E. coli = assay: Determination of MIC; type: cell-based, Escherichia coli; details: Escherichia coli
Procedure: as §1

ESBL E. coli = assay: Determination of MIC; type: cell-based, Escherichia coli; details: Escherichia coli
Procedure: as §1

ESBL K. pneumoniae = assay: Determination of MIC; type: cell-based, Klebsiella pneumoniae; details: Klebsiella pneumoniae
Procedure: as §1

K. pneumoniae = assay: Determination of MIC; type: cell-based, Klebsiella pneumoniae; details: Klebsiella pneumoniae
Procedure: as §1

[3] = test system: human hepatocytic (HepG2) cells; assay: Cytotoxicity assay, lactate dehydrogenase release; type: cell-based; details: for % of living HepG2 cells: 24 h, LDH
Procedure: (§2) Cytotoxicity of the fungal extract and the identified compounds was determined measuring lactate dehydrogenase release using human intestinal epithelial (Caco2) and human hepatocytic (HepG2) cells. […] Cells were seeded into 96-well plates (5 × 10^4 cells per well) and incubated until a confluent cell layer had developed. After discarding of the media cells were incubated with 50 μl of media and 50 μl of fungal extract or compound (final concentration: PAA 2 × 10^6 μg/l, 4FP 2 × 10^6 μg/l, ICA 2 × 10^6 μg/l, IAA 2 × 10^5 μg/l, PLA 2 × 10^6 μg/l, cPM 2 × 10^6μg/l and cFP 2 × 10^6 μg/l) for 24 h at 37°C. […] LDH release was measured according to the manufacturer’s protocol (Sigma–Aldrich, USA).

[4] = test system: human intestinal epithelial (Caco2) cells; assay: Cytotoxicity assay, lactate dehydrogenase release; type: cell-based; details: for % of living Caco2 cells: 24 h, LDH
Procedure: as §2

Caco2 cells = assay: XTT assay, metabolic active cells; type: cell-based, human; details: XTT
Procedure: (§3) In parallel the % of metabolic cells was measured using the XTT [2,3-Bis-(2-methoxy-4-nitro-5-sulfophenyl)-2H-tetra zolium-5-carboxanilide] assay (Thermo Scientific). Briefly, after treatment with the fungal extract or the different compounds cells were incubated with XTT and phenanzine methosulfate (Thermo Scientific) for 2 h. Absorbance was measured at 450 nm and % of metabolic active cells was calculated versus the control sample (media). As controls we incubated the cells without fungal cultures or compound, and with VPA alone.

HepG2 cells = assay: XTT assay, metabolic active cells; type: cell-based, human
Procedure: as §3

Caco2 and HepG2 cells = type: cell-based; details: at the determined MIC concentrations; range over compounds and cell lines
Procedure: as §2

P. aeruginosa = assay: Determination of MIC; type: cell-based, Pseudomonas aeruginosa; details: Pseudomonas aeruginosa
Procedure: as §1

[5] = design: method as in Rodloff et al., 2008; details: ref Rodloff et al., 2008; cited from earlier work
[6] = ESBL K. pneumoniae, read-out: MIC

Molecule	% of living HepG2 cells ([3]; compound 2mg/ml) [%]	% of living Caco2 cells ([4]; compound 2mg/ml) [%]	% of metabolic active Caco2 cells (Caco2 cells; compound 2mg/ml) [%]	% of metabolic active HepG2 cells (HepG2 cells; compound 2mg/ml) [%]	dead cells (Caco2 and HepG2 cells)	MIC (S. aureus; S. aureus, read-out: MIC) [µg/mL]	MIC (P. aeruginosa) [µg/mL]	MIC (E. coli; E. coli, read-out: MIC) [µg/mL]	MIC (ESBL E. coli; ESBL E. coli, read-out: MIC) [µg/mL]	MIC (ESBL K. pneumoniae; [6]) [µg/mL]	MIC (K. pneumoniae; K. pneumoniae, read-out: MIC) [µg/mL]	MIC ([1]; MRSA 335, read-out: MIC) [µg/mL]	MIC ([2]; MRSA 337, read-out: MIC) [µg/mL]	also measured
O=C(O)Cc1ccccc1 [PAA, phenylacetic acid]	6.99	6.53	113.54	122.9	3.99–8.61%	–	–	–	–	–	–	–	–	MIC (S. aureus): 2000 µg/mL (≈ 14.7 mM); MIC [1]: 2000 µg/mL (≈ 14.7 mM); MIC [2]: 2000 µg/mL (≈ 14.7 mM); MIC (C. albicans): 2500 µg/mL (≈ 18.4 mM); MIC (E. coli): 2000 µg/mL (≈ 14.7 mM); MIC (ESBL E. coli): 2000 µg/mL (≈ 14.7 mM); MIC (ESBL K. pneumoniae): 2500 µg/mL (≈ 18.4 mM); MIC (K. pneumoniae): 2500 µg/mL (≈ 18.4 mM)
O=C(O)Cc1c[nH]c2ccccc12 [IAA, indole-3-acetic acid]	–	–	–	–	–	400 (≈ 2.28 mM)	2000 (≈ 11.4 mM)	1750 (≈ 9.99 mM)	1750 (≈ 9.99 mM)	2000 (≈ 11.4 mM)	400 (≈ 2.28 mM)	–	–	MIC ([1]; MRSA 335): 400 µg/mL (≈ 2.28 mM); MIC ([1]; MRSA strain B335466, read-out: MIC): 400 µg/mL (≈ 2.28 mM); MIC ([2]; MRSA 337): 200 µg/mL (≈ 1.14 mM); MIC ([2]; MRSA strain B337919, read-out: MIC): 200 µg/mL (≈ 1.14 mM); MIC (C. albicans; C. albicans, read-out: MIC): 400 µg/mL (≈ 2.28 mM); % of living HepG2 cells ([3]; compound 0.2mg/ml): 7.27 ± 1.77%; % of living Caco2 cells ([4]; compound 0.2mg/ml): 8.61%; % of metabolic active Caco2 cells (Caco2 cells; compound 0.2mg/ml): 103.64%; % of metabolic active HepG2 cells (HepG2 cells; compound 0.2mg/ml): 108.28%
co-trimoxazole	–	–	–	–	–	–	–	–	–	–	–	–	–	accepted MIC values for antibiotics in clinical use [5]: 100 mg/L
O=C(O)c1c[nH]c2ccccc12 [ICA, indole-3-carboxylic acid]	4.86	8.36	97.59	122.3	3.99–8.61%	2000 (≈ 12.4 mM)	2000 (≈ 12.4 mM)	1000 (≈ 6.21 mM)	1000 (≈ 6.21 mM)	2000 (≈ 12.4 mM)	2000 (≈ 12.4 mM)	2000 (≈ 12.4 mM)	2000 (≈ 12.4 mM)	–
O=C(O)C(O)Cc1ccccc1 (centres unmarked) [PLA, phenyllactic acid]	54.63	19.65	41.48	66.01	–	2000 (≈ 12 mM)	5000 (≈ 30.1 mM)	2500 (≈ 15 mM)	5000 (≈ 30.1 mM)	5000 (≈ 30.1 mM)	2500 (≈ 15 mM)	2000 (≈ 12 mM)	2000 (≈ 12 mM)	dead cells ([3]; at the determined MIC concentrations, HepG2): 54.63%; dead cells ([4]; at the determined MIC concentrations, Caco2): 19.7%
